Data published in US4061757A, “Compounds having juvenile hormone activity” (A/S Cheminova, priority 1971, dated 1977).

Legend:
Culex pipiens L = assay: Culex test (mature larvae, loss of 50% of test animals); type: in vivo; conditions: Table I, read-out: IC-50 eclos.
Protocol: The biological tests are examplified by tests on the yellow mealworm, Tenebrio molitor L, Galleria mellonella L, Culex pipiens L, Aedes aegypti L and Drosophila melanogaster L. Culex test: The compounds are tested on mature larvae. The concentration (IC-50 eclos.) is given in ppm.

Aedes aegypti L = assay: Aedes test (same test as for Culex); type: in vivo; conditions: Table I, mature larvae, loss of 50% of test animals, read-out: IC-50 eclos
Protocol: (§1) The biological tests are examplified by tests on the yellow mealworm, Tenebrio molitor L, Galleria mellonella L, Culex pipiens L, Aedes aegypti L and Drosophila melanogaster L.
Culex test: The compounds are tested on mature larvae. The concentration (IC-50 eclos.) is given in ppm.
Aedes test: The same test as for Culex.

Tenebrio molitor L = assay: Tenebrio test (topical application to pupae, morphological inhibition of adult characters); type: in vivo, Tenebrio molitor L (yellow mealworm); conditions: Table I; topical, acetone solution, 0.5 to 2 hours old pupae (150 mg), 27° C, 70% RH
Protocol: as §1
Tenebrio test: The material in question is applied topically to the abdomen of 0.5 to 2 hours old pupae of the said species, as a solution in acetone. The pupae are held at 27° C and 70% RH, ecdysis occuring 5 to 7 days later. The degree of inhibition of adult characters is referred to an arbitrary scale, where a morphologically perfect adult is given the character 0%, and a perfect second pupae 100%. In Table 1 is given the morphological inhibition dose 50% (ID 50 morph.) for some of the chemicals invented, in μg per standard pupa (150 mg). ID 50 morph. refers to specimens showing predominantly adult characters in the front part, pupal characters in the abdomen.
ID50 morph is as said above the dose causing development of individuals showing predominantly adult characters in the front part and pupal characters in the abdomen. It is known that ID50 -doses in general are 10 times greater than ED50 -doses.

[1] = test system: Drosophila melanogaster L; assay: Drosophila test (compound in agar based food, pupae which fail in ecdysis); type: in vivo; conditions: Table I, in artificial agar based food, pupae failing in ecdysis
Protocol: as §1
Drosophila test: One ml of acetone solution of the compound to be tested is mixed with an artificial agar based food mixture just before this solidifies. Ten less than one day old adult flies -- five of each sex -- are added, and all abnormalities observed for two generations. Juvenile hormone activity is especially noted in the pupae which fail in ecdysis. EC50 -eclos. is given in ppm.

Tenebrio = conditions: Table II, known compounds; dose causing abnormal development of 50% of treated pupae; data from Nature, Vol. 232, Aug. 13, 1971; cited from earlier work

SMILES	IC50 for inhibition of adult emergence (eclosion) (Culex pipiens L)	IC50 (inhibition of eclosion) (Aedes aegypti L)	ID-50 morph. (Tenebrio molitor L)	EC-50 eclos [1]	ED50 (Tenebrio)
CCOC(C)(C)CCCC(C)CCOc1ccc(CC)nc1 (centres unmarked) [Compound 39, 7-Ethoxy-3,7-dimethyl-1l-(96'-ethyl-3'-pyridyloxy)-octane]	< 10 µg/mL	0.5 µg/mL	0.01 μg/pupa	> 100 ppm	–
C/C(=C\COc1ccc(C)cc1)CCC1OC1(C)C (centres unmarked) [R CH3, n 1]	–	–	–	–	0,05 μg/pupa
